# Measured values published in US20030134824A1, “Beta-cyclodextrin dimers and phthalocyanines and uses thereof” (priority 2001, published 2003).
# Experiments:
# [1] = Microcalorimetric titration with p-tert-butylbenzoic acid; type: binding
# Method: β-cyclodextrin (CD) monomer 23 (6.4 mg, 0.005 mmol) was dissolved in 0.20 M pH 9.0 Na2CO3/NaHCO3 buffer (5.00 mL) to make a 1.0 mM solution. p-tert-Butylbenzoic acid (11.0 mg, 0.062 mmol) was dissolved in 6.16 mL of the same buffer to make a 10.0 mM solution. Both solutions were degassed under reduced pressure with a sonicator for 5 minutes immediately prior to the binding study. The β-CD monomer 23 solution (2.50 mL) was put into the sample cell compartment of an Omega microcalorimeter, whereas the p-tert-butyl-benzoic acid was loaded in a 250 μL syringe and then assembled onto the calorimeter. The system was equilibrated until RMS error was less than 5×10^−3 with the syringe spinning at 400 rpm. The p-tert-butylbenzoic acid solution was then injected into the cell in 25 injections (10 μL, 7 seconds per injection). […] Injection data were automatically collected by the computer, and the data was analyzed by ORIGIN software with the single-binding-site model. […]
# β-Cyclodextrin (4.0 mg, 0.0035 mmol) was dissolved in 0.20 M pH 9.0 Na2CO3/NaHCO3 buffer (3.53 mL) to make a 1.0 mM solution. p-tert-butyl-benzoic acid (10.0 mg, 0.056 mmol) was dissolved in 5.60 mL of the same buffer to make a 10.0 mM solution. […] Injection data were automatically collected by the computer, and the data was analyzed by ORIGIN software with the single-binding-site model. […]
# [2] = Photochemical cleavage of the dimers by bound phthalocyanines, monitored by 1H NMR; type: physicochemical; details: dimer 2.5 mM, photosensitizer 0.14 mM, 5% DMSO-d6 in D2O, O2, light >540 nm, 25° C.
# Method: All of the photocleavage reactions were carried out using the same apparatus, as described previously (U.S. Ser. No. 09/352,529, filed Jul. 13, 1999, now allowed; Ruebner et al. 1999). A halogen lamp (50 W) was set up with a 540 nm cut-off filter and a focusing lens. The NMR tube in which the reactions were run was placed in the most strongly focused area, and oxygen was bubbled continuously through the solution while the photocleavage reactions were run. To monitor the reactions, ^1H NMR's were taken at regular intervals, whereby the disappearance of the alkene peaks and the appearance of the single formyl peak could be observed.
# The dimers were at a concentration of 2.5 mM while the photosensitizers were at 0.14 mM in 5% DMSO-d6 in D2O. Here dimer 21 was cleaved using phthalocyanine 11. It can clearly be seen that the amount of alkene (doublet at ˜6.2 ppm) decreases and the formyl peak (singlet at ˜8.4 ppm) appears as the reaction progresses, and that no other peaks are seen in this area. […]
# To a solution of β-cyclodextrin dimer 17 (5.9 mg, 2.35×10^−6 mol) and potassium carbonate (2 mg) in D2O (1.00 mL) was added a 3 mM solution of phthalocyanine 6 (0.17 mg, 1.50×10^−7 mol) in DMSO-d6 (50 μL). […] The reaction was monitored by ^1H NMR, by observance of the disappearance of the alkene peaks and the appearance of the formyl peak. […]
# [3] = Binding of BNS to β-cyclodextrin dimers by fluorescence titration; details: water, ca. 25° C.
# Method: Binding constants for a few of the possible pairs were determined by a fluorescence competition method previously used for cyclodextrin dimers, competing the substrate of interest with 2-(p-tert-butylanilino)naphthalene-6-sulfonic acid 22, (termed BNS, Breslow et al. 1989). [drawing 26]
# BNS is fluorescent when bound into a hydrophobic cavity such as that of a cyclodextrin, but only weakly fluorescent in water solution. Only the sulfonated phthalocyanines were soluble enough for this method.
# The binding constant of BNS 22 to each dimer was determined as previously (Breslow et al. 1989, Ruebner et al. 1999) by titrating BNS into a dimer solution in a fluorescence cell, then exciting this solution at 330 nm and measuring the fluorescent emission at 438 nm. The binding constant of phthalocyanine to dimer was measured by titration of BNS into a 1:1 mixture of dimer and phthalocyanine. […] The binding constant of BNS to each dimer is given by K=intercept/slope, and the binding constant of the phthalocyanine can be calculated as KI=(K/K′−1)/[I], where K′ is the apparent binding constant of BNS to the dimer in presence of phthalocyanine, and [I] is the concentration of phthalocyanine (Ruebner et al. 1996). […]
# The binding constant for BNS to cyclodextrin dimer 21 was determined by the fluorescence emission method. […] The area under the peak between 400 and 500 nm was measured for each addition. […]
binding constant with 4-tert-butylbenzoic acid [1],binding constant of BNS to the dimer [3] [M⁻¹],Compound,time for 50% cleavage of the dimer by phthalocyanine 6 [2] [min],time for 50% cleavage of the dimer by phthalocyanine 14 [2] [min]
1.7×10^4 M^−,,OC[C@H]1O[C@@H]2O[C@H]3[C@H](O)[C@@H](O)[C@@H](O[C@H]4[C@H](O)[C@@H](O)[C@@H](O[C@H]5[C@H](O)[C@@H](O)[C@@H](O[C@H]6[C@H](O)[C@@H](O)[C@@H](O[C@H]7[C@H](O)[C@@H](O)[C@@H](O[C@H]8[C@H](O)[C@@H](O)[C@@H](O[C@H]1[C@H](O)[C@H]2O)O[C@@H]8CO)O[C@@H]7CO)O[C@@H]6CO)O[C@@H]5CO)O[C@@H]4CO)O[C@@H]3CO [β-cyclodextrin],,
,418000,CNC(=O)CCCS/C=C\SCCCC(=O)NC [Dimer 18],55,6
